Bridge positions count the residues as written; N and C are the ends. Peptide text beside a SMILES is read from it.
Experiments:
matriptase-2 (MT2) = target: T1, matriptase-2 (MT2) (Homo sapiens, UniProt Q8IU80); test: Selectivity assay against matriptase-2; type: biochemical; details: Figure S1
T1 construct: purchased Enzo Life Sciences, Switzerland
T1 sequence (Q8IU80 1-811): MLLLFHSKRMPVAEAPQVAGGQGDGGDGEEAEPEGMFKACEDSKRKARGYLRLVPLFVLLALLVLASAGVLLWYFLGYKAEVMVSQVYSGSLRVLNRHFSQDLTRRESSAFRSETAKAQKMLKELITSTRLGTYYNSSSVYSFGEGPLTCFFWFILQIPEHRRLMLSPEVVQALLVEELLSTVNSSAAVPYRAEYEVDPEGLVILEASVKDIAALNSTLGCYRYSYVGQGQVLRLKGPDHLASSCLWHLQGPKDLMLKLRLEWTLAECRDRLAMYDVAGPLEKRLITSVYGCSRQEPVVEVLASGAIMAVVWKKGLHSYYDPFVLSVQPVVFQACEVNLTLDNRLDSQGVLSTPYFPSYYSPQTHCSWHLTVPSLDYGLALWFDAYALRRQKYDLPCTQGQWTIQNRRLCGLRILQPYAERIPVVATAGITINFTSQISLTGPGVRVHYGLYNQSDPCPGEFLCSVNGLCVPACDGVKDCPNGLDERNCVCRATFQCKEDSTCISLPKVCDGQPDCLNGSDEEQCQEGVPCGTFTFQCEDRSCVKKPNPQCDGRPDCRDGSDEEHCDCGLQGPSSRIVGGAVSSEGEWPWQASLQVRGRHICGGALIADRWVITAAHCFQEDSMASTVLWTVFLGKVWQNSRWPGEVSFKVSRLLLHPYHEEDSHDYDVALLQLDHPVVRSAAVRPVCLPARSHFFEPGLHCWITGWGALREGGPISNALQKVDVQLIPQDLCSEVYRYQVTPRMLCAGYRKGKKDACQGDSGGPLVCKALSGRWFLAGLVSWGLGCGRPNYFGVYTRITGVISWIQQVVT
Method: (§1) The selectivities of the strongest furin inhibitors 3, 5, 6, and FI were assessed using commercially available, purified, recombinant proteases, namely, matriptase-1 (MT1) and matriptase-2 (MT2). Both enzymes belong to the type II transmembrane serine proteases, present trypsin-like specificity, and share high structural similarity but differ in biological activity.[33] […]
(§2) The IC50 values (inhibitor concentrations giving 50% inhibition of enzyme activity) were calculated from plots of enzyme activity (% of control sample) versus the inhibitor’s concentration using a four-parameter fit model (GraFit 5.0.12 Erithacus Software Ltd.). The IC50 values were determined from triplicate measurements with at least seven different inhibitor concentrations. The K i values […] were calculated using the Cheng-Prusoff equation, assuming the competitive mode of inhibition, according to the following relationship: IC50 = K i(1+S/Km). All measurements were performed using a Fluostar Omega microplate reader (BMG Labtech, Germany) and 96-well black plates (BRAND, Germany). Recombinant human matriptase-1/ST14 catalytic domain was purchased from R&D Systems, USA. Recombinant human matriptase-2 was obtained from Enzo Life Sciences, Switzerland.
(§3) Soluble human recombinant furin was kindly gifted by Dr Anna Kwiatkowska (group of Prof. Robert Day from Université de Sherbrooke).4
(§4) The following assay buffers were used: […] (matriptase-1 and matriptase-2), pH 7.5 100 mM HEPES with 1 mM CaCl 2 and 1.8 mg/mL BSA (furin). The substrates used in the assays were as follows: for matriptase-1 and matriptase-2 Boc-Gln-Ala-Arg-AMC (Pepta Nova, Germany) in final concentration of 5 µM, for furin […] (Pepta Nova, Germany) in final concentration of 20 µM. Enzymes concentrations were as follows: 1.25 ng/mL of matriptase-1, 1.51 U/mL for matriptase-2, and 1.1 nM for furin. In the case of matriptase-1 and matripase-2 concentrations were calculated according to information provided by the suppliers.
(§5) In short, the tested compounds were added to the appropriate protease in different concentrations and incubated in an assay buffer at 37 °C for 30 min. […] Reactions were monitored for at least 40 min at 37 °C. […] The percentage inhibition of an enzyme was calculated relative to the control sample without an inhibitor. The K m value for furin substrate was determined by incubating the enzyme with its substrate in various concentrations as recommended.5 Plots of the substrate concentration versus the initial reaction velocity were analyzed according to Michaelis-Menten equation using GraFit 5.0.12 Erithacus Software Ltd. A double reciprocal (Lineweaver-Burk) plot was used to determine the Michaelis constant K m value. […]

matriptase-1 (MT1) = target: T2, matriptase-1 (MT1) (Homo sapiens, UniProt Q9Y5Y6); test: Selectivity assay against matriptase-1; type: biochemical; details: Figure S1
T2 construct: Recombinant human matriptase-1/ST14 catalytic domain; purchased R&D Systems, USA
T2 sequence (Q9Y5Y6 615-854 limits assumed): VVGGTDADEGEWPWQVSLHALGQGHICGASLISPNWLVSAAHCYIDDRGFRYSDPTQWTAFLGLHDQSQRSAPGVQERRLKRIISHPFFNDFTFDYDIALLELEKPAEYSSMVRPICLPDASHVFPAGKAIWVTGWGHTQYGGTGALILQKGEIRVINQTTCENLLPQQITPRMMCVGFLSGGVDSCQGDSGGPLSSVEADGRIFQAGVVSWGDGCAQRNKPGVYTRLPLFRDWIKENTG
Method: as §1, §2, §3, §4, §5

furin = details: cited from earlier work

| activity in assay with MT2 (matriptase-2 (MT2)) | activity against MT1 (matriptase-1 (MT1)) | Compound | Ki (furin) |
| --- | --- | --- | --- |
| only irrelevant activity | not active | CC[C@H](C)[C@@H]1NC(=O)[C@@H]2CCCN2C(=O)[C@@H]2CCCN2C(=O)[C@H]([C@@H](C)CC)NC(=O)[C@H](CO)NC(=O)[C@H](CCCCN)NC(=O)[C@H](CCCCN)NC(=O)[C@@H](NC(=O)[C@H](CCCNC(=N)N)NC(=O)[C@@H](N)CCCCN)CSSC[C@@H](C(=O)N[C@@H](Cc2ccccc2)C(N)=O)NC1=O [FI, Lys-Arg-Cys(&)-Lys-Lys-Ser-Ile-Pro-Pro-Ile-Cys(&)-Phe-NH2, reference compound] (H-KRCKKSIPPICF-NH2; disulfide 3-11; N-terminus assumed) | 0.49 nM |
| only irrelevant activity | not active | CC[C@H](C)[C@@H]1NC(=O)[C@@H]2CCCN2C(=O)[C@@H]2CCCN2C(=O)[C@H]([C@@H](C)CC)NC(=O)[C@H](CO)NC(=O)[C@H](CCCCN)NC(=O)[C@H](CCCCN)NC(=O)[C@@H](NC(=O)[C@H](CCCNC(=N)N)NC(=O)[C@H](CCCNC(=N)N)NC(=O)[C@@H](N)CCCNC(=N)N)CSSC[C@@H](C(=O)N[C@@H](Cc2ccccc2)C(N)=O)NC1=O [inhibitor 3, Arg-Arg-Arg-Cys(&)-Lys-Lys-Ser-Ile-Pro-Pro-Ile-Cys(&)-Phe-NH2] (H-RRRCKKSIPPICF-NH2; disulfide 4-12) | – |
| only irrelevant activity | not active | CC[C@H](C)[C@@H]1NC(=O)[C@@H]2CCCN2C(=O)[C@@H]2CCCN2C(=O)[C@H]([C@@H](C)CC)NC(=O)[C@H](CO)NC(=O)[C@H](CCCCN)NC(=O)[C@H](CCCCN)NC(=O)[C@@H]2CSSC[C@H](NC1=O)C(=O)N[C@@H](Cc1ccccc1)C(=O)N[C@@H](CCCCN)C(=O)N[C@@H](CCCNC(=N)N)C(=O)N[C@@H](CCCNC(=N)N)C(=O)N2 [inhibitor 5, &^1Lys-Arg-Arg-Cys(&^2)-Lys-Lys-Ser-Ile-Pro-Pro-Ile-Cys(&^2)-Phe&^1] (cyclo(KRRCKKSIPPICF); disulfide 4-12) | – |
| only irrelevant activity | not active | CC[C@H](C)[C@@H]1NC(=O)[C@@H]2CCCN2C(=O)[C@@H]2CCCN2C(=O)[C@H]([C@@H](C)CC)NC(=O)[C@H](CO)NC(=O)[C@H](CCCCN)NC(=O)[C@H](CCCCN)NC(=O)[C@@H]2CSSC[C@H](NC1=O)C(=O)N[C@@H](Cc1ccccc1)C(=O)N[C@@H](CCCNC(=N)N)C(=O)N[C@@H](CCCNC(=N)N)C(=O)N[C@@H](CCCNC(=N)N)C(=O)N2 [inhibitor 6, &^1Arg-Arg-Arg-Cys(&^2)-Lys-Lys-Ser-Ile-Pro-Pro-Ile-Cys(&^2)-Phe&^1] (cyclo(RRRCKKSIPPICF); disulfide 4-12) | – |
